Experimental data: ChEMBL document CHEMBL2321828, “Interrogation of the Active Sites of Protein Arginine Deiminases (PAD1, -2, and -4) Using Designer Probes” (ACS Med Chem Lett, 2013)

How the values were obtained:
[1] = target: Protein-arginine deiminase type-2 (Mus musculus) (UniProt Q08642); assay: Ratio of Kinact to Ki for mouse PAD2 using BAEE as substrate after 30 mins
[2] = target: T1, Protein-arginine deiminase type-1 (Homo sapiens) (UniProt Q9ULC6); assay: Ratio of Kinact to Ki for human PAD1 using BAEE as substrate after 30 mins
T1 sequence (whole entry): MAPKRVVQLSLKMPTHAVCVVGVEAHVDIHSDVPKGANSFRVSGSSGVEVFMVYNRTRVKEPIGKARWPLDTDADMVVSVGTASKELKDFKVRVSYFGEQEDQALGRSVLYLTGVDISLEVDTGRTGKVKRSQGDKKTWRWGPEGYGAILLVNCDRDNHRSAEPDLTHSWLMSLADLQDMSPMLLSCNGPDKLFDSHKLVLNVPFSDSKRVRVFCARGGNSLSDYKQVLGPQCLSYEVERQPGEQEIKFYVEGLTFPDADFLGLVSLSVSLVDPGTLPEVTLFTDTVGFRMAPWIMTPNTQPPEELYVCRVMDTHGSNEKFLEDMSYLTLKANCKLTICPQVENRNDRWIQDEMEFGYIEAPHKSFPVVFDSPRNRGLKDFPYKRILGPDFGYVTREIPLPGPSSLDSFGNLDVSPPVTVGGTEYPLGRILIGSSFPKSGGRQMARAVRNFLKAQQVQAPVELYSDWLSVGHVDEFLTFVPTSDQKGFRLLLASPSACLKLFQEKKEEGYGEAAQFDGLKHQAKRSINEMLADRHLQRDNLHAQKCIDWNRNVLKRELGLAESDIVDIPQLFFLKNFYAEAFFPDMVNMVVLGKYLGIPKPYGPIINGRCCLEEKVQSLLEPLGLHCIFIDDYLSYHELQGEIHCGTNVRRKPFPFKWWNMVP

[3] = target: Protein-arginine deiminase type-4 (Homo sapiens) (UniProt Q9UM07); assay: Ratio of Kinact to Ki for human PAD4 using BAEE as substrate after 30 mins
Sequence of Protein-arginine deiminase type-4 (Homo sapiens) (Q9UM07 whole entry): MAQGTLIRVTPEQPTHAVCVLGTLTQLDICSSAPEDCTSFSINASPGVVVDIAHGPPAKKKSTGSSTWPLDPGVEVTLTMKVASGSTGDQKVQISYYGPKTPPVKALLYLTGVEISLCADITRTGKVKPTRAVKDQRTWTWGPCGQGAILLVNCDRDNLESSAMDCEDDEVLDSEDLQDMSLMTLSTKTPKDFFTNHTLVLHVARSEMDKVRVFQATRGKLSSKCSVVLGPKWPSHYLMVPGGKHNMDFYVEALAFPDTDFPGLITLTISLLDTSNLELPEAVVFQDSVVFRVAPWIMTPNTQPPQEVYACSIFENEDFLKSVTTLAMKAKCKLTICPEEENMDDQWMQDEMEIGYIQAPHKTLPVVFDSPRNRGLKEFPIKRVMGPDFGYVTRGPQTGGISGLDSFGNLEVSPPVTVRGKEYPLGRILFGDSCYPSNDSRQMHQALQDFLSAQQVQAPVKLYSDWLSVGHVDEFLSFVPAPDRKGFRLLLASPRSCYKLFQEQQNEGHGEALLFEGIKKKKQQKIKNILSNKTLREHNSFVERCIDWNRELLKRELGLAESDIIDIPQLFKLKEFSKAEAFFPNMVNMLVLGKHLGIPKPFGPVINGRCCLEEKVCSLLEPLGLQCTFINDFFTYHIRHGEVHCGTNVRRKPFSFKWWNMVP

Sequence of Protein-arginine deiminase type-2 (Mus musculus) (Q08642 whole entry): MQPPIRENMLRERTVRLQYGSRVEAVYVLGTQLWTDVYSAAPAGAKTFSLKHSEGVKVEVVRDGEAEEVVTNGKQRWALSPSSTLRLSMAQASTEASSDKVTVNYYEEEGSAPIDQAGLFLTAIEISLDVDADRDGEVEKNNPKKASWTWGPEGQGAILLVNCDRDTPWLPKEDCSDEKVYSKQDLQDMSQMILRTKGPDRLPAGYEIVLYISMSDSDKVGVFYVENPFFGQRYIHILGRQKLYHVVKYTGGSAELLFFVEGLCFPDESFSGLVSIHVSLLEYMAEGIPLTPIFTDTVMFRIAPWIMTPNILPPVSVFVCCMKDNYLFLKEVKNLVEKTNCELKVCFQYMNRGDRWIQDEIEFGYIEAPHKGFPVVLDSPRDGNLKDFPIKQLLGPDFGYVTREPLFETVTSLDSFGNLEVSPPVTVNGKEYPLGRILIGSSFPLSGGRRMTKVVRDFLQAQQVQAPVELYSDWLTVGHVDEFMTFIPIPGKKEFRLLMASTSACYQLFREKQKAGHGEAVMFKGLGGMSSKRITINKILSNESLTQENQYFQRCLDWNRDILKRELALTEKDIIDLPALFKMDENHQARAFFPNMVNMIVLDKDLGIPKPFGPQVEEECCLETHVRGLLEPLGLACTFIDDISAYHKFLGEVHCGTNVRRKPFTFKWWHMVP

Row | Ratio [1] | Ratio [2] | Ratio [3] | Compound
1 | 50 M⁻¹ min⁻¹ | 111 M⁻¹ min⁻¹ | 183 M⁻¹ min⁻¹ | COC(=O)[C@H](CCNC(=N)CCl)NC(C)=O
2 | 120 M⁻¹ min⁻¹ | 62 M⁻¹ min⁻¹ | 50 M⁻¹ min⁻¹ | COC(=O)[C@H](CCCCNC(=N)CCl)NC(C)=O
3 | 9 M⁻¹ min⁻¹ | 32 M⁻¹ min⁻¹ | 60 M⁻¹ min⁻¹ | N=C(N)CCl
4 | 167 M⁻¹ min⁻¹ | 497 M⁻¹ min⁻¹ | 865 M⁻¹ min⁻¹ | COC(=O)[C@H](CCCNC(=N)CCl)NC(C)=O
